{"source": "patent US11123340B2", "about": "“Small-molecule UT-A-selective urea transport inhibitors” (The Regents of the University of California, priority 2014, dated 2021)", "key": {"rat UT-A1 [1]": {"target": "T1, rat UT-A1 (Rattus norvegicus, UniProt Q62668)", "T1 construct": "expressed in transfected cells; host or cells: MDCK cells stably co-expressing rat UT-A1, human AQP1 and YFP-H148Q/V163S", "T1 sequence (Q62668 1-929)": "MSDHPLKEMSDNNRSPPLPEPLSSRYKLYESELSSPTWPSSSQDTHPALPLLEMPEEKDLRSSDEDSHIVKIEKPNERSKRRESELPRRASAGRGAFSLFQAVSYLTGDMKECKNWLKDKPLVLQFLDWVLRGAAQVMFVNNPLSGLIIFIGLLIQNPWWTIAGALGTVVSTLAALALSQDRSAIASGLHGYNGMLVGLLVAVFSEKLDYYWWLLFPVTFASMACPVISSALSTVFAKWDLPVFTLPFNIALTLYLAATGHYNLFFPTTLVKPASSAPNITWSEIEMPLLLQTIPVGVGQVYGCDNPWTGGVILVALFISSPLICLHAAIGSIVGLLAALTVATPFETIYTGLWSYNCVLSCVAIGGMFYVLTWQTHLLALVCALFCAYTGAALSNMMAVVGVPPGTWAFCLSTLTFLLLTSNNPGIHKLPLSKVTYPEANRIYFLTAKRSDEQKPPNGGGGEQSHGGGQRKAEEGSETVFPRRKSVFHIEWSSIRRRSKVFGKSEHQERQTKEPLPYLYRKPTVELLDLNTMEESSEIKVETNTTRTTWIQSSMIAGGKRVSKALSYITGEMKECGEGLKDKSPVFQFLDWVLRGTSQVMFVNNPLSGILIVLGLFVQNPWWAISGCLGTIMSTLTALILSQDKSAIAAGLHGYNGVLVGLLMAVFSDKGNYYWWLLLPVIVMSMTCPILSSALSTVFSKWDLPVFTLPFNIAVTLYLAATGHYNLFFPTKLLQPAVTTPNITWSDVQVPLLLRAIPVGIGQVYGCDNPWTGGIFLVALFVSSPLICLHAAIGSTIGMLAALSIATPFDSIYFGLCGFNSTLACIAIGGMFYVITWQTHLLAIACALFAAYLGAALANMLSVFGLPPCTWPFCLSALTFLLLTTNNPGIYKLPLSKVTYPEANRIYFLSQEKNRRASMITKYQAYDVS", "assay": "UT-A1 inhibition, fluorescence plate reader assay in MDCK cells expressing UT-A1, AQP1 and YFP-H148Q/V163S", "format": "cell-based", "protocol": "Primary screening was done using a collection of 50,000 chemically diverse, drug-like compounds from ChemDiv (San Diego, Calif.). For analysis of structure-activity relationships, >300 commercially available analogs (ChemDiv and Asinex, Winston-Salem, N.C.) were tested. Cells were plated on black 96-well Costar microplates with clear plastic bottoms (Corning, Corning, N.Y.) at 15,000 cells/well and cultured for 24 h at 37° C. before assay. Microplates containing cultured cells were washed twice with PBS and 150 μL of test compound (25 μM final) in PBS was added. Eighty wells contained test compounds, and the first and last columns of each plate contained negative (dimethyl sulfoxide, DMSO) and positive (0.35 mM phloretin) controls. The assays were done on a plate reader (Tecan Trading AG, Switzerland) equipped with a custom YFP filter set. Each assay consisted of a continuous 15-s read (5 Hz) in which 50 μL of 3.2 M urea in PBS was injected at 1 s (at 130 μL/s) to give a 800 mM final urea gradient.\nMDCK cells stably expressing rat UT-A1 (see, e.g., Frohlich et al. (2006) Am J Physiol Cell Physiol. 291, C600-D606), YFP-H148Q/V163 S (see, e.g., Galietta, et al. (2001) FEBS Lett. 499, 220-224) and human AQP1, as described previously (see, e.g., Esteva-Font et al. (2013) Chem Biol. 20, 1235-1244), were grown in Dulbecco's modified Eagle medium (DMEM) containing 10% fetal bovine serum (FBS), penicillin G (100 U/mL), streptomycin (100 μg/mL), zeocin (500 μg/mL), geneticin (600 μg/mL) and Hygromycin (500 μg/mL) at 37° C., 5% CO2. A Cell Clone with bright YFP fluorescence and relatively low AQP1 expression was used for the screen to maximize dynamic range.\nIn order to identify UT-A inhibitors suitable for testing in rats, a collection of 50,000 synthetic small molecules was screened. As diagrammed in FIG. 1A (top), the fluorescence cell-based screen utilized MDCK cells stably rat expressing UT-A1, water channel AQP1 and the cytoplasmic chloride-sensing fluorescent protein YFP-H148Q/V163S. As described and validated previously (see, e.g., Esteva-Font et al. (2013) Chem Biol. 20, 1235-1244), extracellular addition of urea results in osmotic water efflux and cell shrinking, which increases intracellular chloride concentration and reduces YFP fluorescence. Urea entry results in increasing YFP fluorescence as cells re-swell. Inhibitors of UT-A1 urea transport produce a lesser reduction in fluorescence and slowed recovery."}, "rat UT-A1 [2]": {"target": "T1, rat UT-A1", "assay": "In vitro functional studies of UT-A1 inhibition (reversibility, urea competition, kinetics)", "format": "cell-based", "details": "for Mechanism of inhibition of urea transport: urea concentration-dependence of apparent IC50", "protocol": "Reversibility of UT-A1 inhibition was tested by pre-incubating MDCK cells expressing rat UT-A1, YFP-H148Q/V163S and AQP1 with inhibitors for 15 min (at 3 μM) and then washing the cells with PBS prior to assay. The urea concentration-dependence of UT-A1 inhibition was studied from inhibitor concentration-response data using different of urea gradients at zero initial intracellular urea concentration, or after preincubation of cells with different concentrations of urea for 10 min prior to a 1,600 mM urea gradient. The kinetics of UT-A1 inhibition was measured by adding inhibitors (3 μM) at different time points (0 to 10 min) prior to assay.\nInhibitor reversibility was studied by incubation of the UT-A1-expressing cells with compounds for 15 min and washing, followed by assay of UT-A1 inhibition. UT-A1 urea transport after inhibitor washout was the same as before inhibitor addition for all compounds (FIG. 3A), indicating full reversibility. Inhibitor competition with urea, as might occur by steric hindrance if the inhibitor and urea occupied physically overlapping sites on the UT-A1 protein, was studied from the urea concentration-dependence of apparent inhibitor IC50. Studies were done with zero urea inside cells initially and different urea concentrations outside, and with different urea concentrations inside cells initially and the same inward urea gradient.\nTo further evaluate the potential site of inhibitor action, the kinetics of UT-A1 inhibition was measured by assay of UT-A1 inhibition at different times after compound addition. […] To assess inhibitor membrane permeability transport of UTAinh-E02 and UTAinh-F11 across MDCK monolayers grown on porous filters by LC/MS was measured. Transport of UTAinh-F11 was much faster than that of UTAinh-E02 (FIG. 3C, right lower panel), with computed transepithelial permeability coefficients of […] and 1.1×10^−5 cm/s, respectively. […]"}}, "note": "“And” between values parts separate entries of the source, which are not always exact repeats. Equal entries are not always repeated.", "data": [{"smiles": "CC(=O)Nc1ccc(-c2csc(-c3c[nH]c4ccccc34)n2)cc1", "note": "[UTA1inh-E02, N-(4-(2-(1H-indol-3-yl)thiazol-4-yl)phenyl)acetamide]", "values": [{"measurement": "IC50", "setting": "rat UT-A1 [1]", "result": "~1 µM and 1 µM"}, {"measurement": "Kinetics of UT-A1 inhibition", "setting": "rat UT-A1 [2]; 3 μM inhibitor, different times after addition", "result": "occurred over minutes"}, {"measurement": "Mechanism of inhibition of urea transport", "setting": "rat UT-A1 [2]", "result": "non-competitive"}]}, {"smiles": "COc1ccc(C)cc1S(=O)(=O)Nc1ccc(Cl)c(N2CCCS2(=O)=O)c1", "note": "[UTA1inh-F11, N-[4-Chloro-3-(1,1-dioxido-1,2-thiazolidin-2-yl)phenyl]-2-methoxy-5-methylbenzene-sulfonamide]", "values": [{"measurement": "IC50", "setting": "rat UT-A1 [1]", "result": 1, "unit": "µM"}, {"measurement": "Mechanism of inhibition of urea transport", "setting": "rat UT-A1 [2]", "result": "non-competitive"}]}]}
